Test results published in patent publication US20230416270A1, “NOVEL CAMPTOTHECIN DERIVATIVE, COMPOSITION COMPRISING SAME AND USE THEREOF” (priority 2020, published 2023).
Numbered stars: 1 amine (or outer) side, 2 acyl side, 3 side chain; on linkers, the order of the positions; unused ones are H or OH. Square brackets hold non-standard residues; d marks the D form. Peptide text beside a SMILES is read from it. * marks the point of attachment. Exatecan = CC[C@@]1(O)C(=O)OCc2c1cc1n(c2=O)Cc2c-1nc1cc(F)c(C)c3c1c2[C@@H](N*)CC3; Hexanoyl(6-maleimido) = O=C1C=CC(=O)N1CCCCCC(=O)*; NHCH2OCH2CO = O=C(COCN[*:1])[*:2]

System: SK-BR-3 cells
Experiment: Assay for antiproliferative activity against SK-BR-3 cells (CellTiter-Lumi, ATP content)
Type: cell-based
Details: Homo sapiens, SK-BR-3, 72 h, read-out: IC50 (nM), antiproliferative activity against SK-BR-3 cells
Experimental: The activity of the antibody-drug conjugate of the present invention can be determined by the assay for the in-vitro antiproliferative activity against SK-BR-3 cells of a camptothecin derivative as a small molecule toxin.
SK-BR-3 cells were seeded into a 384-well plate (Fisher 142762) at 3000 cells per well. The next day, serially diluted compounds were added, and 72 hours after the addition, CellTiter-Lumi (Beyotime C0068XL) was added to measure the ATP content in the cells. The growth of the cells was evaluated, and relative IC50 values of the compounds against cell growth was calculated.

First: CC[C@@]1(O)C(=O)OCc2c1cc1n(c2=O)Cc2c-1nc1cc(F)c(C)c3c1c2C(N)CS3 (stereo partly drawn) [Compound 1, (9S)-1-amino-9-ethyl-5-fluoro-9-hydroxy-4-methyl-1,9,12,15-tetrahydro-13H-pyrano[3′, 4′:6,7]indolizino[1,2-b]thiopyrano[4,3,2-de]quinoline-10,13(2H)-dione]
Second: CC[C@@]1(O)C(=O)OCc2c1cc1n(c2=O)Cc2c-1nc1cc(F)c(C)c3c1c2[C@H](N)CS3 [Compound 1-1]
The IC50 of the first is 1.9-fold lower: 2.98 nM for the first, 5.81 nM for the second. The first is the more potent here.

Compared with `CC[C@@]1(O)C(=O)OCc2c1cc1n(c2=O)Cc2c-1nc1cc(F)c(C)c3c1c2[C@@H](N)CS3` [Compound 1-2], `CC[C@@]1(O)C(=O)OCc2c1cc1n(c2=O)Cc2c-1nc1cc(F)c(C)c3c1c2C(O)CS3` (some centres unmarked) [Compound 20] is 3.4-fold higher in IC50: 1.73 nM for the first, 5.83 nM for the second. The first is the more potent here.

First: CC[C@@]1(O)C(=O)OCc2c1cc1n(c2=O)Cc2c-1nc1cc(F)c(OC)c3c1c2[C@@H](N)CS3 [Compound 4-2]
Second: CC[C@@]1(O)C(=O)OCc2c1cc1n(c2=O)Cc2c-1nc1cc(F)c(OC)c3c1c2[C@@H](NC(=O)CO)CS3 [Compound 35]
The IC50 of the first is 2.4-fold lower: 2.74 nM for the first, 6.53 nM for the second. The first is the more potent here.

Compared with `CC[C@@]1(O)C(=O)OCc2c1cc1n(c2=O)Cc2c-1nc1cc(F)c(C)c3c1c2[C@@H](N)CO3` [Compound 7-2], `CC[C@@]1(O)C(=O)OCc2c1cc1n(c2=O)Cc2c-1nc1cc(F)c(C)c3c1c2[C@@H](N)CC3` [Exatecan, reference compound] is 2-fold higher in IC50: 2.68 nM for the first, 5.35 nM for the second.

Going from `CC[C@@]1(O)C(=O)OCc2c1cc1n(c2=O)Cc2c-1nc1cc(F)c(C)c3c1c2[C@@H](NC)CS3` [Compound 14-2] to `CC[C@@]1(O)C(=O)OCc2c1cc1n(c2=O)Cc2c-1nc1cc(F)c(C)c3c1c2[C@@H](NC(=O)[C@H](C)O)CS3` [Compound 44], the IC50 rises from 4.13 nM to 6.29 nM (1.5-fold).

`CCc1c(F)cc2nc3c(c4c2c1SC[C@@H]4NC(=O)CO)Cn1c-3cc2c(c1=O)COC(=O)[C@]2(O)CC` [Compound 34] and `Cc1c(F)cc2nc3c(c4c2c1SC[C@@H]4NC(=O)CO)Cn1c-3cc2c(c1=O)COC(=O)[C@]2(O)CCF` [Compound 39] are within 1.5-fold of each other in IC50: 5.84 nM for the first, 4.78 nM for the second.

`CC[C@@]1(O)C(=O)OCc2c1cc1n(c2=O)Cc2c-1nc1cc(F)c(C)c3c1c2[C@@H](NC(=O)CO)CO3` [Compound 41] and `CC[C@@]1(O)C(=O)OCc2c1cc1n(c2=O)Cc2c-1nc1cc(F)c(C)c3c1c2[C@@H](NC(=O)[C@@H](O)C1CC1)CS3` [Compound 48] are within 1.5-fold of each other in IC50: 6.47 nM for the first, 6.73 nM for the second.

`CC[C@@]1(O)C(=O)OCc2c1cc1n(c2=O)Cc2c-1nc1cc(F)c(C)c3c1c2[C@@H](NC(=O)[C@H](O)C1CC1)CS3` [Compound 49] gave an IC50 of 7.32 nM.

Same assay, conditions: Homo sapiens; SK-BR-3, 72 hours after compound addition, relative IC50; read-out: IC50 (nM), antiproliferative activity against SK-BR-3 cells

First: CCc1c(F)cc2nc3c(c4c2c1SC[C@@H]4N)Cn1c-3cc2c(c1=O)COC(=O)[C@]2(O)CC [Compound 3-2]
Second: CC[C@@]1(O)C(=O)OCc2c1cc1n(c2=O)Cc2cc3c(CN(C)C)c(O)ccc3nc2-1 [Topotecan, reference compound]
The IC50 of the first is 20-fold lower: 2.85 nM for the first, 58.3 nM for the second. The first is the more potent here.

Same assay, conditions: SK-BR-3, 72 hours after compound addition, relative IC50; read-out: IC50 (nM), antiproliferative activity against SK-BR-3 cells

Molecule `CC[C@@]1(O)C(=O)OCc2c1cc1n(c2=O)Cc2c-1nc1cc(F)c(C)c3c1c2[C@@H](NC(=O)COCNC(=O)CNC(=O)[C@H](Cc1ccccc1)NC(=O)CNC(=O)CNC(=O)CCCCCN1C(=O)C=CC1=O)CC3` [Deruxtecan, reference compound] ({Hexanoyl(6-maleimido)}-GGFG[NHCH2OCH2CO]-Exatecan) has an IC50 of 13.6 nM.

Same assay, conditions: SK-BR-3 antiproliferative activity, relative to exatecan

`CC[C@@]1(O)C(=O)OCc2c1cc1n(c2=O)Cc2c-1nc1cc(F)c(C)c3c1c2[C@@H](N)CS3` [Compound 1-2] was tested, and the “fold more active than exatecan” value was 2 fold.

System: SK-BR-3 cells with high expression of HER2
Experiment: cells
Type: cell-based
Details: Homo sapiens, SK-BR-3, 144 h, read-out: IC50 (nM), antiproliferative activity of the antibody-drug conjugates against SK-BR-3 cells
Text: SK-BR-3 cells with high expression of HER2 were selected as cell strains for in-vitro activity detection in the experiment and were used for evaluating the dose-effect relationship of the antibody-drug conjugates (ADCs) of the present invention on cell killing.

Work on `CC[C@@]1(O)C(=O)OCc2c1cc1n(c2=O)Cc2c-1nc1cc(F)c(C)c3c1c2[C@@H](N)CC3` [Exatecan, reference compound] yielded an IC50 of 0.73 nM.
